What was measured:
Format in all cases: biochemical
PI3K α = PI3K α (Homo sapiens (Human), UniProt P42336); assay: PI 3-Kinase (human) HTRF assay, p110α/p85α
PI3K β = PI3K β (Homo sapiens (Human), UniProt P42338); assay: PI 3-Kinase (human) HTRF assay, p110β/p85α
PI3K δ = PI3K δ (Homo sapiens (Human), UniProt O00329); assay: PI 3-Kinase (human) HTRF assay, p110δ/p85α
PI3K γ = PI3K γ (Homo sapiens (Human), UniProt P48736); assay: PI 3-Kinase (human) HTRF assay, p110γ; settings: read-out: PI3K γ IC50
Sequence of PI3K γ (P48736 whole entry): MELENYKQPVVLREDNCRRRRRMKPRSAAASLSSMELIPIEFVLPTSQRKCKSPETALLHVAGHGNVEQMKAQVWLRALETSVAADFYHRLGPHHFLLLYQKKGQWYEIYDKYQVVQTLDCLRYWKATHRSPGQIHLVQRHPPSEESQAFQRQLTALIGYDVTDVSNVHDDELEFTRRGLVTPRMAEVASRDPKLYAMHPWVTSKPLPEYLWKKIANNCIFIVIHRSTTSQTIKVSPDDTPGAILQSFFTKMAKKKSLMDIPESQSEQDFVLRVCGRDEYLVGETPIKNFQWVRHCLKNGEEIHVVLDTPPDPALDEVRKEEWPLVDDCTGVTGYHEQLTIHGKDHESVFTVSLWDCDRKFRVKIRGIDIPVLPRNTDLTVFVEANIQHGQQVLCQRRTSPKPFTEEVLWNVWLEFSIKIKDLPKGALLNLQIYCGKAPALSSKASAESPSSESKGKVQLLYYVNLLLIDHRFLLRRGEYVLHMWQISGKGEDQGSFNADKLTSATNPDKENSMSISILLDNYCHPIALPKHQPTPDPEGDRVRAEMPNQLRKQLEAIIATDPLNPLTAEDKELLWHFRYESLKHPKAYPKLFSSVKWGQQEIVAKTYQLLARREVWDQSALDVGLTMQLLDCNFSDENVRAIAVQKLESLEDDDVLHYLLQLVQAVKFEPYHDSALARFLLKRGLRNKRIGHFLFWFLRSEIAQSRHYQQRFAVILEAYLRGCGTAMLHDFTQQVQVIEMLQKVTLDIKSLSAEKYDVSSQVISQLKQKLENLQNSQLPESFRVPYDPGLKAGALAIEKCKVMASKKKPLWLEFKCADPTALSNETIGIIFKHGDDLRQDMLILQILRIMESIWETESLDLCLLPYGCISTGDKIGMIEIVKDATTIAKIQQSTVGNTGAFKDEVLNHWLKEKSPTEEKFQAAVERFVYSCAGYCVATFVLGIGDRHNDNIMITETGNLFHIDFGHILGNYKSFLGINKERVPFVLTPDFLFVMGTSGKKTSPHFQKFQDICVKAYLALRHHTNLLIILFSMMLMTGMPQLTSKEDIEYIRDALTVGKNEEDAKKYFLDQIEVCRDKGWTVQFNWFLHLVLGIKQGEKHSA

Sequence of PI3K α (P42336 whole entry): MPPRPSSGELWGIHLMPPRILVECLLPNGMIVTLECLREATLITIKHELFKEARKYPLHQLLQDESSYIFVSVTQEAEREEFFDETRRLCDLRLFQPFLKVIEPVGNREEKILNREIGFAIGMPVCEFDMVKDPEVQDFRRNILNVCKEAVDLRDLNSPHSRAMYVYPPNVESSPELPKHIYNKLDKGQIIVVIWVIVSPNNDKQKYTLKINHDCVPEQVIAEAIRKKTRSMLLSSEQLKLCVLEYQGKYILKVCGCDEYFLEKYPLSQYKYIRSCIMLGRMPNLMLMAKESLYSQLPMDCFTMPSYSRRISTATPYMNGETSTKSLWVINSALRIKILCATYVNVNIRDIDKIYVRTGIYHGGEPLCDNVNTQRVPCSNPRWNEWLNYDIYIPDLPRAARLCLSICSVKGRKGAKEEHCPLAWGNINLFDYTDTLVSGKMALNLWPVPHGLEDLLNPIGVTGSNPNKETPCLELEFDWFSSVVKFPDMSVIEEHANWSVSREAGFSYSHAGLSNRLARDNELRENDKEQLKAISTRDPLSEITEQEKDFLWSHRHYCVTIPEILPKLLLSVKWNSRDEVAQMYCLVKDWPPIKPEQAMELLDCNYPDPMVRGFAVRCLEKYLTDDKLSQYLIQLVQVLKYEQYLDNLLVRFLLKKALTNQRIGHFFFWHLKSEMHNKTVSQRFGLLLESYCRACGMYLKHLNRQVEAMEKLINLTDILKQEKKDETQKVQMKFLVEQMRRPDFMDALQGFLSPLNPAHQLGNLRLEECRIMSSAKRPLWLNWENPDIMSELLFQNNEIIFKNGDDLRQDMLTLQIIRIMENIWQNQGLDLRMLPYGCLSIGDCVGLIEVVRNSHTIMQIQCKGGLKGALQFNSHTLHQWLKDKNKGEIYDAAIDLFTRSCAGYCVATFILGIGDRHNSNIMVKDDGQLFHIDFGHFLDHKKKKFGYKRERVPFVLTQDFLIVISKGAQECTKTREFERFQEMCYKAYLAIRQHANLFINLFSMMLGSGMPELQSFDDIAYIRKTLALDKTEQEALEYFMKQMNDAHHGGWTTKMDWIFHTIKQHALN
Sequence of PI3K α (P27986 whole entry partner): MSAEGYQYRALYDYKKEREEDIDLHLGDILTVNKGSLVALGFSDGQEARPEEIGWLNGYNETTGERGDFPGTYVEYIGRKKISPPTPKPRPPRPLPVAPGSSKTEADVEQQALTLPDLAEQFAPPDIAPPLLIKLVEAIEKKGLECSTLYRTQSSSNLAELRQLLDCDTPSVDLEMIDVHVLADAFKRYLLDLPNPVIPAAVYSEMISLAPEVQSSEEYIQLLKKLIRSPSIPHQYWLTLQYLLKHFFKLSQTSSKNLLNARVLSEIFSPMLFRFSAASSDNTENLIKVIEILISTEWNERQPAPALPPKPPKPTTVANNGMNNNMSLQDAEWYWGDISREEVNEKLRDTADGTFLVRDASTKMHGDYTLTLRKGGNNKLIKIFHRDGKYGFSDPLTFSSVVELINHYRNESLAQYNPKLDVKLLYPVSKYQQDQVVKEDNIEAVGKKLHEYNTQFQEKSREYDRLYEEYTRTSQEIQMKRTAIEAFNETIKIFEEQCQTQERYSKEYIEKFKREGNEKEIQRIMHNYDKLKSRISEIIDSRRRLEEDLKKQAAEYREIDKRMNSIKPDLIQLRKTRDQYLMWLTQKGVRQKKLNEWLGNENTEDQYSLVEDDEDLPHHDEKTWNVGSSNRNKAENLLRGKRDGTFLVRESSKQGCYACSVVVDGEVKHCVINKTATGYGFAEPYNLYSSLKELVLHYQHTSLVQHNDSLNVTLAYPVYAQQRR
Sequence of PI3K δ (O00329 whole entry): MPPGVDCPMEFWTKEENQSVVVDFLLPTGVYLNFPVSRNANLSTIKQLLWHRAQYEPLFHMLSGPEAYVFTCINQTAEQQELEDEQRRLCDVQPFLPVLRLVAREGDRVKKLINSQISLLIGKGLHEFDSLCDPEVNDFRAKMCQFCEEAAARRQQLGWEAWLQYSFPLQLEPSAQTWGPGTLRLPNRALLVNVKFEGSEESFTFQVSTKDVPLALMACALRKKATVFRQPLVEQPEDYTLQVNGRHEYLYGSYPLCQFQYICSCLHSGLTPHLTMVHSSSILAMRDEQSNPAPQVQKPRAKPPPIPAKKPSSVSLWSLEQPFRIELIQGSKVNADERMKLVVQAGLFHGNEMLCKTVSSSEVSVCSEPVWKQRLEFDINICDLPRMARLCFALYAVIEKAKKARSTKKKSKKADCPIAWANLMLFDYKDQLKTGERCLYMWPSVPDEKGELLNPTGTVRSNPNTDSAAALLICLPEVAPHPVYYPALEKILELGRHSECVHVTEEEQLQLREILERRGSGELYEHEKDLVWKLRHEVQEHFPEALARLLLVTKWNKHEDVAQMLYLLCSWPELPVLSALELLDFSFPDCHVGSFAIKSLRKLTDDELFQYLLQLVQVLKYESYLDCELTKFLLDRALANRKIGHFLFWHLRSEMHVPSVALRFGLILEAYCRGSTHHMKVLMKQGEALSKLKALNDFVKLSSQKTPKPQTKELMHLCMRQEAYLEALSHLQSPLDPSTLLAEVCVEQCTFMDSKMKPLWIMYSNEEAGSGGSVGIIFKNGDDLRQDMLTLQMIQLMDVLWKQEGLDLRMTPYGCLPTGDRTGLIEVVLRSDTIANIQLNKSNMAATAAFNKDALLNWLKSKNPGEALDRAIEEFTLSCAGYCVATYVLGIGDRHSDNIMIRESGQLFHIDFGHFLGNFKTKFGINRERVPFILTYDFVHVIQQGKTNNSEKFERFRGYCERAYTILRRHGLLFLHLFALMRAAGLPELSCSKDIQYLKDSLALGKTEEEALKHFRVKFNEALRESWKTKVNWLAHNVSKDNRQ
Sequence of PI3K δ (P27986 whole entry partner): as the sequence (P27986 whole entry partner) above
Sequence of PI3K β (P42338 whole entry): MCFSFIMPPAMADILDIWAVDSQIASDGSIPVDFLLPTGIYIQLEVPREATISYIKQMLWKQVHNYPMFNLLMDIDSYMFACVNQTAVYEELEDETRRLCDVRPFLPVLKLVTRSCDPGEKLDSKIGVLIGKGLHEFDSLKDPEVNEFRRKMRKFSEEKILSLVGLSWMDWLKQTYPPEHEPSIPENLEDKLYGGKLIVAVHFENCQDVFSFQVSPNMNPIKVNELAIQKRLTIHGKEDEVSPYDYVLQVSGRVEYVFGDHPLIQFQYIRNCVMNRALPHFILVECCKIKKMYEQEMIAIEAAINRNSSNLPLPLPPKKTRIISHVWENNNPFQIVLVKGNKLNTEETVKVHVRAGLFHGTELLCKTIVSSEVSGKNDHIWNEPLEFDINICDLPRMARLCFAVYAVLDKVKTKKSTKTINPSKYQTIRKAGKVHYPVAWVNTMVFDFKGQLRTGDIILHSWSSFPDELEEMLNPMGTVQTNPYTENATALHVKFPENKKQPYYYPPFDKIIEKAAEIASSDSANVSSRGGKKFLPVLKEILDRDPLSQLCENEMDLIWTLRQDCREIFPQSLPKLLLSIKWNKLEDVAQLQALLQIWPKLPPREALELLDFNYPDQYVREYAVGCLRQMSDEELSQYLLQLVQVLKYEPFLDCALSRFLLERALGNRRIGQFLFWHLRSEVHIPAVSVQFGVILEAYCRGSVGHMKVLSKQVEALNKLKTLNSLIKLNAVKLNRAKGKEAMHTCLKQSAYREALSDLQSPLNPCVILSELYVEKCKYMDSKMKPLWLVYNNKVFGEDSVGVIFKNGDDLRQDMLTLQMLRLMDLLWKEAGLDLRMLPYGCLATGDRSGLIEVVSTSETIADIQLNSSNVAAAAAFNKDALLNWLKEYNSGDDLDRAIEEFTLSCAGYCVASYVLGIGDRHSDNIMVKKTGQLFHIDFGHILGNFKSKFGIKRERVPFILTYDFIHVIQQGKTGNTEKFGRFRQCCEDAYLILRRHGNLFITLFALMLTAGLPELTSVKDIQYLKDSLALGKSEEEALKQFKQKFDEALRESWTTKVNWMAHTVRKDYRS
Sequence of PI3K β (P27986 whole entry partner): as the sequence (P27986 whole entry partner) above

Row | SMILES | IC50 (PI3K α) [µM] | IC50 (PI3K β) [µM] | IC50 (PI3K δ) [µM] | IC50 (PI3K γ) [µM]
1 | Nc1nc2cc(-c3ccc4ncc(-c5cccnc5)cc4n3)ccc2o1 | < 0.1 | < 10 | < 10 | < 0.1
2 | CCN(CC)c1cnc2ccc(-c3ccc4oc(N)nc4c3)nc2n1 | < 1 | > 10 | < 10 | < 1
3 | Nc1nsc2ccc(-c3ccc4nccc(-c5ccncc5)c4c3)cc12 [Compound 12] | > 10 | > 10 | > 10 | > 10
4 | Nc1nsc2cc(-c3ccc4nccc(-c5ccncc5)c4c3)ccc12 [Compound 13] | < 0.1 | < 1 | < 1 | < 1
5 | Nc1nc2cc(-c3cc4nccc(-c5ccncc5)c4s3)ccc2o1 [Compound 14] | < 10 | > 10 | > 10 | < 10
6 | Nc1noc2cc(-c3ccc4nccc(-c5ccncc5)c4c3)ccc12 [Compound 16] | < 0.1 | < 10 | < 10 | < 1
7 | Nc1noc2ccc(-c3ccc4nccc(-c5ccncc5)c4c3)cc12 [Compound 18] | < 10 | > 10 | > 10 | < 10
8 | CC(=O)Nc1cn2cc(-c3ccc4nccc(-c5ccncc5)c4c3)ccc2n1 [Compound 19] | > 10 | > 10 | > 10 | > 10
9 | CN1CCN(c2ccnc3ccc(-c4ccc5oc(N)nc5c4)cc23)CC1 [Compound 21] | < 1 | < 10 | < 10 | < 10
10 | CN1CCN(c2ncnc3ccc(-c4ccc5oc(N)nc5c4)cc23)CC1 [Compound 23] | < 0.1 | < 1 | < 10 | < 0.1

Other lines, results leading:

Row | IC50 (PI3K α) [µM] | IC50 (PI3K β) [µM] | IC50 (PI3K δ) [µM] | IC50 (PI3K γ) [µM] | SMILES
11 | < 1 | < 0.1 | < 10 | < 10 | C[C@H]1CN(c2cnc3ccc(-c4ccc5oc(N)nc5c4)nc3n2)CCN1
12 | < 1 | > 10 | > 10 | < 10 | CC1(C)CN(C2CN(c3cnc4ccc(-c5ccc6oc(N)nc6c5)nc4n3)C2)CCO1
13 | < 1 | > 10 | > 10 | < 10 | CC1CN(C2CN(c3cnc4ccc(-c5ccc6oc(N)nc6c5)nc4n3)C2)CCO1 (centres unmarked)
14 | < 1 | > 10 | > 10 | < 10 | Nc1nc2cc(-c3ccc4ncc(N5CC(N6CC7CCC(C6)O7)C5)nc4n3)ccc2o1
15 | < 0.1 | > 10 | < 10 | > 10 | C[C@H]1CN(C2CN(c3cnc4ccc(-c5ccc6oc(N)nc6c5)nc4n3)C2)CCN1C
16 | < 0.1 | > 10 | > 10 | < 1 | Nc1nc2cc(-c3ccc4ncc(N5CC6CCC(C5)O6)nc4n3)ccc2o1
17 | < 0.1 | < 1 | < 10 | < 0.1 | Nc1nc2cc(-c3ccc4ncc(N5CCNC(=O)C5)nc4n3)ccc2o1
18 | < 0.1 | < 0.1 | < 0.1 | < 0.1 | C[C@H](N)C(=O)N1CCN(c2cnc3ccc(-c4ccc5oc(N)nc5c4)nc3n2)CC1
19 | < 0.1 | < 10 | < 10 | < 1 | C[C@@H](N)C(=O)N1CCN(c2cnc3ccc(-c4ccc5oc(N)nc5c4)nc3n2)CC1
20 | < 0.1 | < 1 | < 10 | < 1 | CC(C)N1CCN(c2cnc3ccc(-c4ccc5oc(N)nc5c4)nc3n2)CC1
21 | < 0.1 | < 10 | < 10 | < 10 | NCC(=O)N1CCN(c2cnc3ccc(-c4ccc5oc(N)nc5c4)nc3n2)CC1
22 | < 1 | > 10 | > 10 | > 10 | Nc1nc2cc(-c3ccc4ncc(N5CC(N6CCNCC6)C5)nc4n3)ccc2o1
23 | < 0.1 | < 10 | > 10 | < 0.1 | Nc1nc2cc(-c3ccc4ncc(N5CCC(O)CC5)nc4n3)ccc2o1

Reference: patent US9682141B2, “Combination of kinase inhibitors and uses thereof” (INTELLIKINE LLC, priority 2011, dated 2017)
